# Experiments:
# CEM cells = test: Cytotoxicity in uninfected CEM cells (trypan blue staining); conditions: at concentrations not exceeding 10 mcg/ml
# Protocol: (§1) Human T cell-derived, T4 antigen-positive CEM cells (provided by the Institut Pasteur, France) were used as host cells of HIV. Cell culture was carried out in a carbon dioxide-containing atmosphere in an incubator maintained at 37°C according to a conventional method [cf. […] The culture supernatant (5×10⁶ TCID₅₀/ml) obtained by subjecting CEM cells to HIV (LAV 1) infection and stored at -70°C was used as the HIV source.
# The cell culture medium (10 ml) placed in a plastic culture flask (25 cm²) was inoculated with CEM cells to a cell density of 2.5×10⁵ cells/ml and incubation was performed for 3 days. Then, the culture was transferred to a 15-ml plastic centrifuge tube and centrifuged at 1,000 revolutions per minute for 5 minutes for medium removal. A fresh portion of the medium was added to the cells, the cell density being adjusted to 5.0×10⁵ cells/ml. The following mixture (1.0 ml) containing the cell suspension prepared in the above manner was incubated in a 24-well plastic culture plate for 4 days:
# The cells in each well were then suspended uniformly in the medium by pipetting and a 0.5-ml portion of the suspension was separated.
# A fresh 2-ml portion of the test substance-free medium was added to the remaining cell suspension (0.5 ml) and, after a further 3-day incubation, a cell suspension was produced in the same manner and a 0.5-ml portion thereof was removed.
# The cell suspensions collected in the above manner were subjected to viable cell count and viable cell percentage determinations by trypan blue staining.
# HIV (LAV 1) = test: microbe, parasite or virus in culture; conditions: for Viable cell count / Viral antigen-positive cell percentage: 4-day addition
# Protocol: as §1
# The medium for cell culture (10 ml) placed in a plastic culture flask (25 cm²) was inoculated with CEM cells at a cell density of 2.5×10⁵ cells/ml. After 3 days of incubation, the culture was transferred to a 15-ml centrifuge tube and subjected to centrifugation at 1,000 revolutions per minute for 5 minutes for sedimentation of cells and removal of the culture medium.
# The stock viral suspension was added to the host cells thus prepared to an MOI of 0.05 and the mixture was maintained at 37°C for 90 minutes with stirring at 30-minute intervals for viral adsorption. The medium was added to HIV-infected cells to a cell density of 5.0×10⁵ cells/ml to give an HIV-infected cell suspension.
# A mixture (1.0 ml) of the three constituents mentioned below was added to each well of a 24-well plastic culture plate and the test substance final concentration was adjusted to 10 mcg/ml, 5 mcg/ml, 2.5 mcg/ml or 1 mcg/ml. The "no addition" wells (0 mcg/ml) served as controls.
# After 4 days of incubation following viral infection, the cells in each well on the 24-well culture plate were suspended uniformly by pipetting and a 0.5-ml portion of the suspension was separated. A 2.0-ml portion of test substance-free fresh medium was added to the remaining 0.5-ml portion of the cell suspension, followed by incubation.
# Seven days after viral infection, pipetting was performed to give a uniform cell suspension in each well and a 0.5-ml portion of the suspension was separated.
# Incubation was continued and, 10 days after viral infection, a uniform cell suspension was produced in the same manner in each well and a 1.5-ml portion thereof was separated. A fresh 2.0-ml portion of the medium free of (or containing) the test substance was added to the well, followed by further incubation.
# Fifteen days after viral infection, the cells in each well were suspended uniformly in the same manner in the medium and a 2.0-ml portion of the suspension was separated. A fresh 2.0-ml portion of the medium free of (or containing) the test substance was added to the remaining 0.5 ml of the cell suspension and incubation was continued.
# Medium exchange was performed in the same manner 20 days and 25 days after viral infection.
# The cell suspensions collected 4 days, 7 days, 10 days, 20 days and 30 days after viral infection were tested for viable cell count and viable cell percentage by trypan blue staining. At the same time, viral antigen-positive cell percentage determination was carried out by immunofluorescence using an anti-HIV antiserum isolated from a healthy carrier of HIV.
# The numerical values given each is the mean for the respective two wells on the culture plate. The viable cell count is the total cell count minus the count of dead cells stained with trypan blue. The viable cell percentage is the percentage of viable cells among all the cells including dead cells. The viral antigen-positive cell percentage is the percentage of cells indicating antigen expression as found among all the cells including dead cells.
# in vivo = conditions: mouse, po
# [1] = Human immunodeficiency virus 1, CCRF-CEM, 96 h, read-out: Viable cell percentage
SMILES,cytotoxicity (CEM cells),"Viable cell count (HIV (LAV 1); 1 mcg/ml, after 4 days)","Viral antigen-positive cell percentage (HIV (LAV 1); 1 mcg/ml, after 4 days)","Viable cell count (HIV (LAV 1); 1 mcg/ml, after 7 days)","Viral antigen-positive cell percentage (HIV (LAV 1); 1 mcg/ml, after 7 days)","Viable cell count (HIV (LAV 1); 1 mcg/ml, after 10 days)","Viable cell count (HIV (LAV 1); 1 mcg/ml, after 20 days)","Viable cell count (HIV (LAV 1); 1 mcg/ml, after 30 days)","Viable cell count (HIV (LAV 1); 2.5 mcg/ml, after 4 days)","Viral antigen-positive cell percentage (HIV (LAV 1); 2.5 mcg/ml, after 4 days)","Viable cell count (HIV (LAV 1); 2.5 mcg/ml, after 7 days)","Viral antigen-positive cell percentage (HIV (LAV 1); 2.5 mcg/ml, after 7 days)","Viable cell count (HIV (LAV 1); 2.5 mcg/ml, after 10 days)","Viable cell count (HIV (LAV 1); 2.5 mcg/ml, after 20 days)","Viable cell count (HIV (LAV 1); 2.5 mcg/ml, after 30 days)","Viable cell count (HIV (LAV 1); 5 mcg/ml, after 4 days)","Viral antigen-positive cell percentage (HIV (LAV 1); 5 mcg/ml, after 4 days)","Viable cell count (HIV (LAV 1); 5 mcg/ml, after 7 days)","Viral antigen-positive cell percentage (HIV (LAV 1); 5 mcg/ml, after 7 days)","Viable cell count (HIV (LAV 1); 5 mcg/ml, after 10 days)",further results
"Cl.O.O=C(O)c1cn(C2CC2)c2cc(N3CCNCC3)c(F)cc2c1=O [CPFX, 1-cyclopropyl-6-fluoro-1,4-dihydro-4-oxo-7-(1-piperazinyl)-3-quinoline carboxylic acid hydrochloride hydrate]",no cytotoxicity,220 × 10⁴ cells/ml,83%,86 × 10⁴ cells/ml,62%,52 × 10⁴ cells/ml,8 × 10⁴ cells/ml,33 × 10⁴ cells/ml,200 × 10⁴ cells/ml,87%,98 × 10⁴ cells/ml,60%,320 × 10⁴ cells/ml,220 × 10⁴ cells/ml,360 × 10⁴ cells/ml,220 × 10⁴ cells/ml,92%,76 × 10⁴ cells/ml,67%,310 × 10⁴ cells/ml,"Viral antigen-positive cell percentage (HIV (LAV 1); 1 mcg/ml, after 10 days): 37%; Viral antigen-positive cell percentage (HIV (LAV 1); 1 mcg/ml, after 20 days): 33%; Viral antigen-positive cell percentage (HIV (LAV 1); 2.5 mcg/ml, after 10 days): 31%; Viral antigen-positive cell percentage (HIV (LAV 1); 2.5 mcg/ml, after 20 days): 3%; Viral antigen-positive cell percentage (HIV (LAV 1); 2.5 mcg/ml, after 30 days): ≦1%; Viral antigen-positive cell percentage (HIV (LAV 1); 5 mcg/ml, after 10 days): 29%; Viable cell count (HIV (LAV 1); 5 mcg/ml, after 20 days): 280 × 10⁴ cells/ml; Viral antigen-positive cell percentage (HIV (LAV 1); 5 mcg/ml, after 20 days): 4%; Viable cell count (HIV (LAV 1); 5 mcg/ml, after 30 days): 320 × 10⁴ cells/ml; Viral antigen-positive cell percentage (HIV (LAV 1); 5 mcg/ml, after 30 days): ≦1%; Viable cell count (HIV (LAV 1); 10 mcg/ml, after 4 days): 180 × 10⁴ cells/ml; Viral antigen-positive cell percentage (HIV (LAV 1); 10 mcg/ml, after 4 days): 88%; Viable cell count (HIV (LAV 1); 10 mcg/ml, after 7 days): 65 × 10⁴ cells/ml; Viral antigen-positive cell percentage (HIV (LAV 1); 10 mcg/ml, after 7 days): 57%; Viable cell count (HIV (LAV 1); 10 mcg/ml, after 10 days): 250 × 10⁴ cells/ml; Viral antigen-positive cell percentage (HIV (LAV 1); 10 mcg/ml, after 10 days): 27%; Viable cell count (HIV (LAV 1); 10 mcg/ml, after 20 days): 300 × 10⁴ cells/ml; Viral antigen-positive cell percentage (HIV (LAV 1); 10 mcg/ml, after 20 days): 10%; Viable cell count (HIV (LAV 1); 10 mcg/ml, after 30 days): 330 × 10⁴ cells/ml; Viral antigen-positive cell percentage (HIV (LAV 1); 10 mcg/ml, after 30 days): ≦1%"
"CCn1cc(C(=O)O)c(=O)c2cc(F)c(N3CCNCC3)nc21 [ENX, 1-ethyl-6-fluoro-1,4-dihydro-4-oxo-7-(1-piperazinyl)-1,8-naphthyridine-3-carboxylic acid sesqui-hydrate]",no cytotoxicity,220 × 10⁴ cells/ml,88%,64 × 10⁴ cells/ml,70%,29 × 10⁴ cells/ml,7 × 10⁴ cells/ml,0 × 10⁴ cells/ml,240 × 10⁴ cells/ml,90%,67 × 10⁴ cells/ml,65%,30 × 10⁴ cells/ml,1 × 10⁴ cells/ml,2 × 10⁴ cells/ml,210 × 10⁴ cells/ml,93%,58 × 10⁴ cells/ml,68%,78 × 10⁴ cells/ml,"LD50 (in vivo): ≥ 4000 mg/kg; Viable cell count (HIV (LAV 1); 5 mcg/ml, after 20 days): 11 × 10⁴ cells/ml; Viable cell count (HIV (LAV 1); 5 mcg/ml, after 30 days): 310 × 10⁴ cells/ml; Viral antigen-positive cell percentage (HIV (LAV 1); 5 mcg/ml, after 30 days): ≦1%; Viable cell count (HIV (LAV 1); 10 mcg/ml, after 4 days): 140 × 10⁴ cells/ml; Viral antigen-positive cell percentage (HIV (LAV 1); 10 mcg/ml, after 4 days): 88%; Viable cell count (HIV (LAV 1); 10 mcg/ml, after 7 days): 52 × 10⁴ cells/ml; Viral antigen-positive cell percentage (HIV (LAV 1); 10 mcg/ml, after 7 days): 68%; Viable cell count (HIV (LAV 1); 10 mcg/ml, after 10 days): 150 × 10⁴ cells/ml; Viral antigen-positive cell percentage (HIV (LAV 1); 10 mcg/ml, after 10 days): 30%; Viable cell count (HIV (LAV 1); 10 mcg/ml, after 20 days): 178 × 10⁴ cells/ml; Viral antigen-positive cell percentage (HIV (LAV 1); 10 mcg/ml, after 20 days): 5%; Viable cell count (HIV (LAV 1); 10 mcg/ml, after 30 days): 379 × 10⁴ cells/ml; Viral antigen-positive cell percentage (HIV (LAV 1); 10 mcg/ml, after 30 days): ≦1%; viability at 1 µg/mL (HIV (LAV 1); [1]): 95%; viability at 2.5 µg/mL (HIV (LAV 1); [1]): 95%; viability at 5 µg/mL (HIV (LAV 1); [1]): 98%; viability at 10 µg/mL (HIV (LAV 1); [1]): 97%"

# From patent publication EP0394553A2, “Use of fluorine containing pyridone carboxylic acid derivatives for preparing a medicament for the treatment of HIV infections” (DAIICHI PHARMACEUTICAL CO., LTD., priority 1989, dated 1990)
